Legend:
Type in all cases: in vivo
[1] = tested on: Echinochloa oryzacola Vasing.; experiment: Test Example 1: herbicidal activity, application before weed generation in submerged conditions; conditions: Application herbicide amount 320 g/ha; Seventeenth Table
How it was run: (§1)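 Submerged pot test: alluvial soil, 4 cm water, seeds sown mixed, 2.5-leaf rice transplanted; emulsion in water applied to surface day of sowing, dose g/ha; greenhouse 25–30° C.; 3 wk; 0–5 rating.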

Monochoria vaginalis = experiment: as above; conditions: Application herbicide amount 320 g/ha; Seventeenth Table
How it was run: as §1

Scirpus juncoides = experiment: as above; conditions: Application herbicide amount 320 g/ha; Seventeenth Table
How it was run: as §1

Cyperus difformis = experiment: Test Example 3: herbicidal effect by application to foliage (Wagner pot, water depth 0.1-0.5 cm); conditions: Nineteenth Table; application to foliage; application herbicide amount 320 g/ha
How it was run: (§2)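 A small sprayer delivered the diluted emulsion uniformly to foliage at the chosen rate in g/ha, 14 days after sowing in Wagner pots held at 25–30 °C. Outcome: 0–5 herbicidal-ratio score read three weeks post-treatment.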

[2] = tested on: Echinochloa crus-galli var. crus-galli; experiment: as above; conditions: Nineteenth Table; application to foliage; application herbicide amount 320 g/ha
How it was run: as §2

Leptochloa chinensis = experiment: as above; conditions: Nineteenth Table; application to foliage; application herbicide amount 320 g/ha
How it was run: as §2

[3] = tested on: directly sowed Oryza sativa; experiment: Test Example 3: effect on crop by application to foliage (Wagner pot, water depth 0.1-0.5 cm); conditions: Nineteenth Table; application to foliage; application herbicide amount 320 g/ha
How it was run: as §2

Digitaria ciliaris = experiment: Test Example 4: herbicidal effect by application to foliage (diluvial soil, plastic box); conditions: Application herbicide amount 320 g/ha
How it was run: (§3)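 Read-out is a 0–5 visual grade of herbicidal ratio (5: ≥90%, almost withered; 0: ≤5%) taken three weeks after treatment. Compound was applied as a diluted emulsion to stem and leaf parts of 14-day greenhouse-grown plants (25° C. to 30° C.) at rates expressed as g/ha.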

Galium spurium = experiment: as above; conditions: Application herbicide amount 320 g/ha
How it was run: as §3

SMILES | A: Echinochloa oryzicola Vasing. (herbicidal effect grade) [1] | C: Monochoria vaginalis (herbicidal effect grade) (Monochoria vaginalis) | B: Scirpus juncoides (herbicidal effect grade) (Scirpus juncoides) | E (herbicidal effect grade) (Cyperus difformis) | H (herbicidal effect grade) [2] | D (herbicidal effect grade) (Leptochloa chinensis) | b (effect on crop grade) [3] | F (Digitaria ciliaris) | Q (Galium spurium)
COCC[S+]([O-])c1nnc2c(C(=O)Nc3nnc(C)o3)ccc(C(F)(F)F)n12 (stereo not drawn) [1-073] | 4 (Herbicidal ratio of 70% or more and less than 90%) | 2 (Herbicidal ratio of 20% or more and less than 40%) | 3 (Herbicidal ratio of 40% or more and less than 70%) | 5 (Herbicidal ratio of 90% or more (almost completely withered)) | 5 (Herbicidal ratio of 90% or more (almost completely withered)) | 5 (Herbicidal ratio of 90% or more (almost completely withered)) | 4 (Herbicidal ratio of 70% or more and less than 90%) | 5 (Herbicidal ratio of 90% or more (almost completely withered)) | 2 (Herbicidal ratio of 20% or more and less than 40%)
C=CC[S+]([O-])c1nnc2c(C(=O)Nc3nnc(C)o3)ccc(C(F)(F)F)n12 (stereo not drawn) [1-074] | 2 (Herbicidal ratio of 20% or more and less than 40%) | 0 (Herbicidal ratio of 5% or less (almost no effect)) | 2 (Herbicidal ratio of 20% or more and less than 40%) | 3 (Herbicidal ratio of 40% or more and less than 70%) | 5 (Herbicidal ratio of 90% or more (almost completely withered)) | 4 (Herbicidal ratio of 70% or more and less than 90%) | 0 (Herbicidal ratio of 5% or less (almost no effect)) | 4 (Herbicidal ratio of 70% or more and less than 90%) | 3 (Herbicidal ratio of 40% or more and less than 70%)
Cc1nnc(NC(=O)c2cc(C)c(C(F)(F)F)n3c(C(C)C)nnc23)o1 [1-075] | 2 (Herbicidal ratio of 20% or more and less than 40%) | 2 (Herbicidal ratio of 20% or more and less than 40%) | 0 (Herbicidal ratio of 5% or less (almost no effect)) | 4 (Herbicidal ratio of 70% or more and less than 90%) | 5 (Herbicidal ratio of 90% or more (almost completely withered)) | 4 (Herbicidal ratio of 70% or more and less than 90%) | 1 (Herbicidal ratio of 5% or more and less than 20%) | 3 (Herbicidal ratio of 40% or more and less than 70%) | 0 (Herbicidal ratio of 5% or less (almost no effect))
Cc1nnc(NC(=O)c2ccc(C(F)(F)F)n3c(N(C)C)nnc23)o1 [1-076] | 5 (Herbicidal ratio of 90% or more (almost completely withered)) | 4 (Herbicidal ratio of 70% or more and less than 90%) | 4 (Herbicidal ratio of 70% or more and less than 90%) | 5 (Herbicidal ratio of 90% or more (almost completely withered)) | 5 (Herbicidal ratio of 90% or more (almost completely withered)) | 5 (Herbicidal ratio of 90% or more (almost completely withered)) | 3 (Herbicidal ratio of 40% or more and less than 70%) | 5 (Herbicidal ratio of 90% or more (almost completely withered)) | 2 (Herbicidal ratio of 20% or more and less than 40%)
C#CC[S+]([O-])c1nnc2c(C(=O)Nc3nnc(C)o3)ccc(C(F)(F)F)n12 (stereo not drawn) [1-077] | 0 (Herbicidal ratio of 5% or less (almost no effect)) | 2 (Herbicidal ratio of 20% or more and less than 40%) | 0 (Herbicidal ratio of 5% or less (almost no effect)) | 3 (Herbicidal ratio of 40% or more and less than 70%) | 5 (Herbicidal ratio of 90% or more (almost completely withered)) | 4 (Herbicidal ratio of 70% or more and less than 90%) | 0 (Herbicidal ratio of 5% or less (almost no effect)) | 4 (Herbicidal ratio of 70% or more and less than 90%) | 1 (Herbicidal ratio of 5% or more and less than 20%)
